Several values for one entry are separate records, joined by “and”; a condition that tells them apart may be missing. Equal entries are not always repeated. Where two headings read alike, the source gives them in different places.
Experiments:
[1] = literature; cited from earlier work
[2] = literature, cited from earlier work
[3] = Biodistribution in rats after an iv injection; format: in vivo, male Sprague Dawley rats; conditions: for Biodistribution, Blood: blood assumed 7% of body weight; for Biodistribution, Muscle: muscle assumed 40% of body weight; for Brain/Blood: ratio
Experimental: Biodistribution of [^67 Ga]BAT-TECH was studied in male Sprague Dawley rats (200-250 g) which were allowed access to food and water ad lib. Saline solution containing [^67 Ga]BAT-TECH in a volume of 0.2 ml was injected directly into a femoral vein. Rats were sacrified (at various time points, 2, 30 and 60 min., post injection) by cardiac excision under ether anesthesia. The organs of interest were removed and counted using a well gamma counter. Percent dose per organ was calculated by comparison of tissue counts to suitably diluted aliquots of injected material. Total activities of blood and muscle were calculated assuming that they are 7% and 40% of total body weight, respectively. Each time point consists of a group of three rats.
2,9-Dimethyl-2,9-mercapto-5-(2-hydroxyphnyl)-4,7-diazadecane was labelled, and the biodistributino of the labelled compound measured, by analogous methods.

[4] = Lipid solubility (reverse phase HPLC, PRP-1 column); format: physicochemical; conditions: PRP-1, pH 7
Experimental: At tracer concentrations, the aqueous chemistry has been studied using [^67 Ga] gallium citrate as the starting material. […] The ratio of ligand to ^67 Ga was determined to be […]. Presumably, under the conditions required for the preparation of the ^67 Ga complex, the cationic [^67 Ga(BAT-TECH)]^+ species is formed.

[5] = 1-octanol/0.1 m phosphate
Experimental: The partition coefficient of the [^67 Ga(BAT-TECH)]^+ complex was measured by mixing the compound with 3 g each of 1-octanol and buffer (pH 7.0 or 7.4, 0.1 M phosphate) in a test tube. This test tube was vortexed for 3 minutes at room temperature and then centrifuged for 5 minutes. Two weighed samples (0.5 g each) from the 1-octanol and buffer layers were counted in a well counter. The partition coefficient was determined by calculating the ratio of counts per minute/gram of octanol to that of buffer. Samples from the octanol layer were repartitioned until consistent partition coefficient values were obtained. The measurement was repeated three times.

[6] = rats, cited from earlier work
[7] = iv, versus [^68 Ga](5-MeOSal)3 TAME

SMILES	Biodistribution, Brain ([3]; iv, 2 min)	Biodistribution, Heart ([3]; iv, 2 min)	Biodistribution, Kidney ([3]; iv, 2 min)	Biodistribution, Liver ([3]; iv, 2 min)	Biodistribution, Lung ([3]; iv, 2 min)	Biodistribution, Skin ([3]; iv, 2 min)	Biodistribution, Spleen ([3]; iv, 2 min)	Biodistribution, Blood ([3]; iv, 2 min)	Biodistribution, Muscle ([3]; iv, 2 min)	Biodistribution, Brain ([3]; iv, 30 min)	Biodistribution, Heart ([3]; iv, 30 min)	Biodistribution, Kidney ([3]; iv, 30 min)	Biodistribution, Liver ([3]; iv, 30 min)	Biodistribution, Lung ([3]; iv, 30 min)	Biodistribution, Skin ([3]; iv, 30 min)	Biodistribution, Spleen ([3]; iv, 30 min)	Biodistribution, Blood ([3]; iv, 30 min)	Biodistribution, Muscle ([3]; iv, 30 min)	other results
CNC1=NN=CC(C)=NN=C(NC)[S][Cu][S]1 [Cu(PTSM), copper-labeled pyruvaldehyde bis(N4-methylthiosemicarbazone)]																			lipid solubility [1]: neutral and lipid-soluble; intracellular stability ([2]; after interacting with sulfurhydryl groups): decomposes intracellularly; passage through the cell membrane / blood-brain barrier ([2]; after intravenous injection): passes through the cell membrane, including the intact blood-brain barrier
CC1(C)C[NH+]2CC(c3ccccc3O)[NH+]3CC(C)(C)[S][67Ga-]23[S]1 (stereo not drawn) [[^67 Ga]2,9-Dimethyl-2,9-Dimercapto-5-(2-hydroxyphenyl)-4,7-diazadecane]	.026 ± .002 % dose/organ	.940 ± .094 % dose/organ	5.677 ± .266 % dose/organ	20.93 ± 4.13 % dose/organ	1.236 ± .155 % dose/organ	.137 ± .023 % dose/organ	.431 ± .085 % dose/organ	11.240 ± .724 % dose/organ	14.392 ± 2.91 % dose/organ	.019 ± .001 % dose/organ	.380 ± .039 % dose/organ	1.204 ± .080 % dose/organ	25.31 ± 1.09 % dose/organ	.690 ± .481 % dose/organ	.079 ± .004 % dose/organ	.155 ± .022 % dose/organ	2.823 ± .182 % dose/organ	17.49 ± 1.37 % dose/organ	Brain/Blood ([3]; iv, 2 min): .028; Brain/Blood ([3]; iv, 30 min): .073
CCC1(CC)C[NH+]2CC3(CCCCC3)[NH+]3CC(CC)(CC)[S][67Ga-]23[S]1 (stereo not drawn) [[^67 Ga]BAT-TECH]	0.02 ± 0.004 % dose/organ	1.68 % dose/organ and 1.68 ± 0.12 % dose/organ	6.94 ± 0.31 % dose/organ	21.52 ± 1.11 % dose/organ	2.07 ± 0.07 % dose/organ	5.44 ± 1.65 % dose/organ	0.50 ± 0.06 % dose/organ	10.18 ± 0.30 % dose/organ	13.89 ± 3.21 % dose/organ	0.01 ± 0.001 % dose/organ	0.52 ± 0.08 % dose/organ	2.00 ± 0.10 % dose/organ	33.54 ± 4.42 % dose/organ	0.46 ± 0.09 % dose/organ	7.56 ± 1.60 % dose/organ	0.15 ± 0.009 % dose/organ	3.58 ± 0.08 % dose/organ	21.14 ± 2.18 % dose/organ	blood and lung washout ([3]; in words): rapid blood and lung washout; myocardial uptake ([3]; in words): fast myocardial uptake; uptake in the liver, washout ([3]; iv): significant uptake in the liver which does not wash out with time; heart uptake ([3]; iv, 30 min): 0.52 % dose/g; Biodistribution, Brain ([3]; iv, 60 min): 0.01 ± 0.002 % dose/organ; Biodistribution, Heart ([3]; iv, 60 min): 0.26 ± 0.02 % dose/organ; Biodistribution, Kidney ([3]; iv, 60 min): 1.06 ± 0.14 % dose/organ; Biodistribution, Liver ([3]; iv, 60 min): 46.41 ± 2.39 % dose/organ; Biodistribution, Lung ([3]; iv, 60 min): 0.37 ± 0.009 % dose/organ; Biodistribution, Skin ([3]; iv, 60 min): 5.78 ± 0.92 % dose/organ; Biodistribution, Spleen ([3]; iv, 60 min): 0.11 ± 0.001 % dose/organ; Biodistribution, Blood ([3]; iv, 60 min): 4.54 ± 1.10 % dose/organ; Biodistribution, Muscle ([3]; iv, 60 min): 10.79 ± 1.85 % dose/organ; heart uptake ([3]; iv, 1 hour): 0.26 % dose/g; heart to blood ratio [3, 7]: comparable to or superior to those reported for [^68 Ga](5- MeOSal)3 TAME; heart to lung ratio [3, 7]: comparable to or superior to those reported for [^68 Ga](5- MeOSal)3 TAME; lipid solubility [4]: very lipid-soluble; partition coefficient (1-octanol/buffer) ([5]; pH 7): 147±5.18; partition coefficient (1-octanol/buffer) ([5]; pH 7.4): 72.3±3.47
COc1ccc2c(c1)C=NCC1(C)CN=Cc3cc(OC)ccc3[O][68Ga]([O]2)[O]c2ccc(OC)cc2C=NC1 [[^68 Ga](5-MeOSal)3 TAME, Gallium-68 1,1,1-tris (5-methoxysalicylaldimino-methyl)ethane]																			heart uptake ([6]; 1 min postinjection): 0.97 % dose/whole heart; heart uptake ([6]; 30 min postinjection): 0.23 % dose/whole heart; heart uptake ([6]; 60 min postinjection): 0.14 % dose/whole heart

Reference: patent US5079346A, “Gallium-labelled imaging agents” (priority 1990, dated 1992)
